Test [1] has as its target C-Raf kinase (SEQ. ID NO: 3) (Homo sapiens (Human), UniProt P04049, Y340D/Y341D). Put plainly: Biochemical Assay for C-Raf (1). The following applies: Table J, assay version (1); read-out: CRAF (1) IC50. The essentials: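 Coupled pyruvate kinase/LDH assay tracking NADH oxidation at 340 nm, with 0.43 nM C-Raf, 30.1 nM MEK and 1 mM ATP in pH 7.5 Tris buffer (15 mM MgCl2, 1% DMSO final). Read continuously for 6 h at 30 °C, rate taken from the 4–5 h window. IC50 from four-parameter fit of percent inhibition.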

In the next test the test system is A375 cells. The test is described as follows: A375 Cell Proliferation Assay (1). The test is classed as cell-based. The conditions noted are these: Homo sapiens, A-375. Here is the method: A375 Cell Proliferation Assay (1)
(§1) A375 cells (catalog (#CRL-1619) are obtained from the American Type Culture Collect (ATTC, Manassas, VA). Briefly, cells were grown in DMEM High Glucose supplemented with 10% characterized fetal bovine serum (Invitrogen, Carlsbad, CA) and 1% Penicillin/Streptomycin/L-Glutamine at 37° C., 5% CO2, and 95% humidity. Cells are expanded until reaching 70-95% confluency at which point they are sub-cultured or harvested for assay use. A serial dilution of test compound is dispensed into a 96-well black clear bottom plate in triplicate. Two thousand five hundred cells are added per well in 200 μL complete growth medium in the 96-well plate. Plates are incubated for 67-72 h at 37° C., 5% CO2, and 95% humidity. At the end of the incubation, 40 μL of a 440 μM solution of resazurin (Sigma, St. Louis, MO) in PBS is added to each well of the plate and plates are incubated for an additional 5-6 h at 37° C., 5% CO2, and 95% humidity. Plates are read on a Synergy2 or equivalent reader (Biotek, Winooski VT) using an excitation of 540 nm and an emission of 600 nm. Data is analyzed using Prism software (GraphPad, San Diego, CA) to calculate IC50 values.

Another test concerns H2405 cells. Put plainly: H2405 Cell Proliferation Assay (1). The conditions noted are these: Homo sapiens, NCI-H2405. The test is classed as cell-based. The protocol: H2405 Cell Proliferation Assay (1)
as §1, with “H2405” for “A375”, “#CRL-5994)” for “(#CRL-1619)”, “RPMI 1640” for “DMEM High Glucose”, “5%” for “10%”, “Three” for “Two”, “thousand” for “thousand five hundred”

Test [2] addresses A-Raf kinase (SEQ. ID No: 1) (Homo sapiens (Human), UniProt P10398, Y301D/Y302D). Put plainly: Biochemical Assay for A-Raf (1). The conditions noted are these: Table J, assay version (1); read-out: ARAF (1) IC50. The essentials: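 A-Raf Y301D/Y302D at 5.55 nM phosphorylates 30.1 nM MEK with 1 mM ATP in pH 7.5 Tris buffer, 1% DMSO. Activity was read continuously as NADH oxidation at 340 nm in a pyruvate kinase/lactate dehydrogenase coupled system for 6 h at 30 °C. Rates from 4–5 h were converted to percent inhibition, and IC50 came from a four-parameter fit.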

Test [3] concerns the target B-Raf kinase (SEQ. ID NO: 2) (Homo sapiens (Human), UniProt P15056). Put plainly: Biochemical Assay for B-Raf (1). The following applies: Table J, assay version (1); read-out: BRAF (1) IC50. Put shortly:
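Continuous PK/LDH-coupled NADH oxidation assay, A340 read for 6 h at 30° C., with 0.13 nM B-Raf, 30.1 nM MEK substrate and 1 mM ATP in Tris pH 7.5, MgCl2, DTT, detergents, 1% DMSO. Rate taken from 4–5 h window; percent inhibition vs no-compound and known-inhibitor controls; four-parameter fit gives IC50.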

In a further test the test system is Miapaca-2 cells. Put plainly: MiaPaca-2 Cell Proliferation Assay (1). The class given is cell-based. The conditions noted are these: Homo sapiens, MIA PaCa-2, single agent, read-out: MiaPaca2 (1) IC50. Here is the method: MiaPaca-2 Cell Proliferation Assay (1)
as §1, with “Miapaca-2 cells” for “A375 cells”, “(catalog #CRL-1420)” for “(catalog (#CRL-1619)”, “DMEM” for “DMEM High Glucose”, “Carlsbad, CA), 2.5% New Zealand sourced horse serum” for “Carlsbad, CA)”, “triplicate. Three” for “triplicate. Two”, “thousand” for “thousand five hundred”

A further test deals with WM3928 cells. The test is described as follows: WM3928 Cell Proliferation Assay (1). The class given is cell-based. The protocol: WM3928 Cell Proliferation Assay (1)
WM3928 cells (#WM3928-01-0001) are obtained from Rockland Immunochemicals Inc (Gilbertsville, PA). Briefly, cells were grown in MCDB 153 medium (Sigma, #M7403, St. Louis, MO) supplemented with 20% Leibovitz's L-15 (ThermoFisher #11415-064, Waltham, MA), 2% heat inactivated fetal bovine serum (ThermoFisher, #A3840001, Waltham, MA), 5 μg/mL Insulin (Bovine Pancreas) (Sigma, #I0516, St. Louis, MO), 1.68 mM Calcium Chloride (Sigma, #C-34006, St. Louis, MO) and 1% Penicillin/Streptomycin/L-Glutamine (ThermoFisher #10378016, Waltham, MA) at 37° C., 5% CO2, and 95% humidity. Cells are expanded until reaching 70-95% confluency at which point they are subcultured or harvested for assay use. A serial dilution of test compound is dispensed into a 96-well black clear bottom plate in triplicate. Three thousand cells are added per well in 200 μL complete growth medium in the 96-well plate. Plates are incubated for 67-72 hours at 37° C., 5% CO2, and 95% humidity. At the end of the incubation, 40 μL of a 440 μM solution of resazurin (Sigma, #199303, St. Louis, MO) in PBS is added to each well of the plate and plates are incubated for an additional 6-7 hours at 37° C., 5% CO2, and 95% humidity. Plates are read on a Synergy2 or equivalent reader (Biotek, Winooski VT) using an excitation of 540 nm and an emission of 600 nm. Data is analyzed using Prism software (GraphPad, San Diego, CA) to calculate IC50 values.

Test [4] deals with B-Raf (V600E) (SEQ. ID NO: 4) kinase (Homo sapiens (Human), UniProt P15056, V600E). The test is described as follows: Biochemical Assay for B-Raf (V600E) (1). The following applies: Table J, BRAF V600E, assay version (1); read-out: BRAF VE (1) IC50. The essentials:
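Coupled pyruvate kinase/lactate dehydrogenase assay: 0.03 nM B-Raf V600E, 30.1 nM MEK, 1 mM ATP, pH 7.5 Tris/MgCl2 buffer, 1% DMSO. NADH oxidation followed at 340 nm for 6 h at 30 °C; rate from 3–4 h converted to percent inhibition, IC50 by four-parameter fit.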

As usually defined, the IC50 is the point on the concentration scale where inhibition reaches its midpoint.

Chain of B-Raf (V600E) (SEQ. ID NO: 4) kinase (P15056 416-766 V600E): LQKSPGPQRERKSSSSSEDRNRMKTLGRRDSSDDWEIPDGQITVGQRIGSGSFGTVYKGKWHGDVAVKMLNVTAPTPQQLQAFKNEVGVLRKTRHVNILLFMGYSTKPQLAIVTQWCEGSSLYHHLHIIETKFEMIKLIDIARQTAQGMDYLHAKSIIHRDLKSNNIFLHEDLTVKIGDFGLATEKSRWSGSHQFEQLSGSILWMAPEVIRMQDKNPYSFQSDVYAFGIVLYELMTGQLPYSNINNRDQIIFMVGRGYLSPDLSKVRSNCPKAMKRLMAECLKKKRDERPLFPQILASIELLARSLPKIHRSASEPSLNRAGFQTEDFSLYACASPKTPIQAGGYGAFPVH
Chain of B-Raf kinase (SEQ. ID NO: 2) (P15056 416-766): as the sequence (P15056 416-766 V600E) above, with E185V counted along it
Chain of C-Raf kinase (SEQ. ID NO: 3) (P04049 307-648 Y340D/Y341D): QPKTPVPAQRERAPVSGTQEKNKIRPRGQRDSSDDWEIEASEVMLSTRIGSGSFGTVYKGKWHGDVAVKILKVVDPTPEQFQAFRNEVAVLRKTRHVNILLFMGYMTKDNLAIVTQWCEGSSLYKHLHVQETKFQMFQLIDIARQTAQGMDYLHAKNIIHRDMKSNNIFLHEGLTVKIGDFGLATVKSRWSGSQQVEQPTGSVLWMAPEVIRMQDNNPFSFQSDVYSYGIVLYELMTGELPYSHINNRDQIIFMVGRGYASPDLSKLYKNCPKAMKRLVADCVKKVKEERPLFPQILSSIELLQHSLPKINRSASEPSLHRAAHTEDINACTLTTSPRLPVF
Chain of A-Raf kinase (SEQ. ID No: 1) (P10398 other isoform, or with tags, fused parts or gaps Y301D (already in the parent)/Y302D (already in the parent)): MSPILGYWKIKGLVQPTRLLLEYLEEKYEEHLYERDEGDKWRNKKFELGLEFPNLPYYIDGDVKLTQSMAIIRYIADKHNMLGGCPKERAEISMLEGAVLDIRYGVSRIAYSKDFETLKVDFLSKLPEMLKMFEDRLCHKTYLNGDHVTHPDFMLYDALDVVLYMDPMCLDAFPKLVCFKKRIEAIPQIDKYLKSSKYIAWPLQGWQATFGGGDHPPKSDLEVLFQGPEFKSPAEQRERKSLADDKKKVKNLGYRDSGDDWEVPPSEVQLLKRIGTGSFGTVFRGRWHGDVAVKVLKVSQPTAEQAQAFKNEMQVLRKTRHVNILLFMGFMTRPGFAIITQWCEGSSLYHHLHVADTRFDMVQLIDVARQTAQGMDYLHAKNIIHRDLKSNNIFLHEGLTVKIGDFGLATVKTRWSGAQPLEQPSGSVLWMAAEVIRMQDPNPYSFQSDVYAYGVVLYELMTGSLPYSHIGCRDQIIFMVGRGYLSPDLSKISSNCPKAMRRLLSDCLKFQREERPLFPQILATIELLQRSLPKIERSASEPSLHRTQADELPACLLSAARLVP

In the case of `Cc1ccc(NC(=O)c2ccnc(C(F)(F)F)c2)cc1-c1cc(-c2ccnc(N)c2)n(C)c(=O)c1` [Example 53], the IC50 in test [1] lay within 100 to 500 nM; in the test with A375 cells, 1000 to 10000 nM; in the test on H2405 cells, 1000 to 10000 nM; in test [2], 1000 to 10000 nM; in test [3], 500 to 1000 nM.
Turning to `Cc1ccc(NC(=O)c2ccnc(C(C)(C)C#N)c2)cc1-c1ccnc(-c2ccncc2)c1` [Example 55], the IC50 lay in the range of 500 to 1000 nM in the test with A375 cells, 1000 to 10000 nM in test [2] and 1 to 10 µM with Miapaca-2 cells.
Regarding `Cc1ccc(NC(=O)c2ccnc(C(F)(F)F)c2)cc1-c1cccc(-c2ccnc(NC(=O)C3CC3)c2)c1` [Example 58], the concentration for half-maximal inhibition (IC50) is 100 to 500 nM in the test on A375 cells; not above 100 nM with H2405 cells; 1000 to 10000 nM in test [2]; 1 to 10 µM in the test with Miapaca-2 cells; 100 to 500 nM in the test with WM3928 cells.
On to `CC(=O)Nc1cc(-c2cc(-c3cc(NC(=O)c4ccnc(C(F)(F)F)c4)c(F)cc3C)cc(=O)n2C)ccn1` [Example 155], for which the IC50 is 100 to 500 nM in test [1]; 1000 to 10000 nM in the test with A375 cells; not above 100 nM in test [4]; 1000 to 10000 nM in test [2]; 100 to 500 nM in test [3].
For `CC(=O)Nc1cc(-c2nccc(-c3cc(NC(=O)c4ccnc(C(C)(C)C#N)c4)cnc3C)n2)ccn1` [Example 195], the half-inhibitory concentration (IC50) in test [1] was not above 100 nM; in the test with A375 cells, 100 to 500 nM; in test [4] it was not above 100 nM; in test [2], 1000 to 10000 nM; in test [3], not above 100 nM.
Consider `CNc1cc(-c2cccc(-c3cc(NC(=O)c4ccnc(C(C)(C)C#N)c4)cnc3C)c2)ncn1` [Example 227], for which the IC50 in test [1] was in the range of 100 to 500 nM; in the test with A375 cells, 1000 to 10000 nM; in the test with H2405 cells it was 1000 to 10000 nM; in test [2] it was 1000 to 10000 nM; in test [3], 100 to 500 nM.
For `Cc1ccc(NC(=O)c2cc(C3CC3)n(C)n2)cc1-c1ccnc(-c2ccnc(NC(=O)C3CC3)c2)n1` [Example 236], the concentration for half-maximal inhibition (IC50) fell in the range of 1000 to 10000 nM in the test on A375 cells, 100 to 500 nM in the test with H2405 cells, 1 to 10 µM in the test on Miapaca-2 cells and 500 to 1000 nM with WM3928 cells.
Regarding `COC(C)(C)c1cc(C(=O)Nc2ccc(C)c(-c3nccc(-c4ccnc(NC(=O)C5CC5)c4)n3)c2)ccn1` [Example 239], the IC50 was not above 100 nM in test [1]; not above 100 nM in the test on A375 cells; not above 100 nM in test [4]; 500 to 1000 nM in test [2]; not above 100 nM in test [3].
On to `Cc1ccc(NC(=O)c2ccnc(C(C)(C)C#N)c2)cc1-c1ccnc(-c2ccnc(NC(=O)C3(C)CC3)c2)n1` [Example 248], for which the IC50 was not above 100 nM in test [1]; 100 to 500 nM in the test with A375 cells; not above 100 nM in test [4]; 1000 to 10000 nM in test [2]; 100 to 500 nM in test [3].
`Cc1ccc(NC(=O)c2cnnc(C3CC3)c2)cc1-c1nccc(-c2ccnc(NC(=O)C3CC3)c2)n1` [Example 272]: the IC50 in the test with A375 cells was 1000 to 10000 nM; in the test on H2405 cells it was 100 to 500 nM; in test [2], 1000 to 10000 nM; in the test on Miapaca-2 cells, 1 to 10 µM; in the test with WM3928 cells, 100 to 500 nM.
`Cc1cc(F)c(NC(=O)c2ccnc(C(F)F)c2)cc1-c1cncc(-c2ccnc(NC(=O)C3CC3)c2)n1` [Example 275]: the concentration for half-maximal inhibition (IC50) in test [1] was not above 100 nM; in the test on A375 cells it was 1000 to 10000 nM; in test [4] it was not above 100 nM; in test [2], 500 to 1000 nM; in test [3] it was not above 100 nM.
`Cc1ncc(NC(=O)c2ccnc(C(C)(C)C#N)c2)cc1-c1cccc(-c2ccnc(N)n2)c1` [Example 289]: the IC50 in test [1] is 100 to 500 nM; with A375 cells it was 1000 to 10000 nM; in test [4], not above 100 nM; in test [2], 1000 to 10000 nM; in test [3], 100 to 500 nM.
In the case of `Cc1ncc(NC(=O)c2ccnc(C3(C#N)CC3)c2)cc1-c1nccc(-c2ccnc(NC(=O)C3CC3)c2)n1` [Example 293], the IC50 in test [1] is not above 100 nM; with A375 cells, 100 to 500 nM; in test [4], not above 100 nM; in test [2], 1000 to 10000 nM; in test [3], not above 100 nM.
Regarding `CNC(=O)c1cc(-c2cnnc(-c3cc(NC(=O)c4cnn(C5CC5)c4)cnc3C)c2)ccn1` [Example 324], the IC50 (in test [1]; in the test on A375 cells; in test [4]; in test [2]; in test [3]) was 1000 to 10000 nM in each case.

Source of the values: US12319655B2, “RAF kinase inhibitors and methods of use thereof” (Deciphera Pharmaceuticals, LLC, priority 2021, dated 2025).
